# Measured values as given in patent US20170159101A1, “DRUG-RESISTANT P97 ATPASE MUTATIONS” (Cleave Biosciences, Inc., priority 2014, published 2017).
# What was measured:
# [1] = tested on: Hct116 resistant cell line clone #117 (p97 L482I); assay: GI50 fold-change, resistant clone #117 vs parental; assay type: cell-based, human; conditions: Clone #117, Hct116, resistance generated with compound 4, C1444A / L482I; 72 hrs
# Description: (§1) Dose titration of test compounds were conducted in Hct116, DLD-1, or LoVo cell lines. In brief, cells were plated in 384-well plates and a selected candidate drug compound was added in a 10-point 2-fold serial dilution.
# [2] = tested on: DLD-1 resistant cell line clone #64 (p97 N660N/S); assay: GI50 fold-change, resistant clone #64 vs parental; assay type: cell-based, human; conditions: Clone #64, DLD-1, resistance generated with compound 4, A1979G/A / N660N/S; 72 hrs
# Description: as §1
# [3] = tested on: Hct116 resistant cell line clone #1 (p97 D649N); assay: GI50 fold-change, resistant clone #1 vs parental; assay type: cell-based, human; conditions: Clone #1, Hct116, resistance generated with compound 2, G1945A / D649N; 72 hrs
# Description: as §1
# [4] = tested on: Hct116 resistant cell line clone #22 (p97 N660D); assay: GI50 fold-change, resistant clone #22 vs parental; assay type: cell-based, human; conditions: Clone #22, Hct116, resistance generated with compound 4, A1978G / N660D; 72 hrs
# Description: as §1
# [5] = tested on: Hct116 resistant cell line clone #207 (p97 V485D); assay: GI50 fold-change, resistant clone #207 vs parental; assay type: cell-based, human; conditions: Clone #207, Hct116, resistance generated with compound 4, T1454A / V485D; 72 hrs
# Description: as §1
# [6] = tested on: Hct116 resistant cell line clone #8 (p97 N660D); assay: GI50 fold-change, resistant clone #8 vs parental; assay type: cell-based, human; conditions: Clone #8, Hct116, resistance generated with compound 3, A1978G / N660D; 72 hrs
# Description: as §1
# [7] = tested on: Hct116 resistant cell line clone #2 (p97 V474A); assay: GI50 fold-change, resistant clone #2 vs parental; assay type: cell-based, human; conditions: Clone #2, Hct116, resistance generated with compound 2, T1421C / V474A; 72 hrs
# Description: as §1
# [8] = tested on: Hct116 resistant cell line clone #6 (p97 A528T); assay: GI50 fold-change, resistant clone #6 vs parental; assay type: cell-based, human; conditions: Clone #6, Hct116, resistance generated with compound 2, G1582 / A528T; 72 hrs
# Description: as §1
# [9] = tested on: LoVo resistant cell line clone #221 (p97 V474V/A); assay: GI50 fold-change, resistant clone #221 vs parental; assay type: cell-based, human; conditions: Clone #221, LoVo, resistance generated with compound 4, T1421C/T / V474V/A; 72 hrs
# Description: (§2) Dose titration of test compounds were conducted in Hct116, DLD-1, or LoVo cell lines. In brief, cells were plated in 384-well plates and a selected candidate drug compound was added in a 10-point 2-fold serial dilution. […] Hct116 cells were plated at 50,000 cells per 15 cm dish and treated with GI50-GI90 doses of test compound for 2-4 weeks until individual colonies of cells were visible on the plate.
# [10] = tested on: Hct116 resistant cell line clone #34 (p97 E470D/E); assay: GI50 fold-change, resistant clone #34 vs parental; assay type: cell-based, human; conditions: Clone #34, Hct116, resistance generated with compound 4, G1410T/G / E470D/E; 72 hrs
# Description: as §1
# [11] = tested on: DLD-1 resistant cell line clone #82 (p97 A569A/T); assay: GI50 fold-change, resistant clone #82 vs parental; assay type: cell-based, human; conditions: Clone #82, DLD-1, resistance generated with compound 4, G1705G/A / A569A/T; 72 hrs
# Description: as §1
# [12] = tested on: Hct116 resistant cell line clone #31 (p97 C535Y); assay: GI50 fold-change, resistant clone #31 vs parental; assay type: cell-based, human; conditions: Clone #31, Hct116, resistance generated with compound 4, G1604A / C535Y; 72 hrs
# Description: as §1
# [13] = tested on: Hct116 resistant cell line clone #5 (p97 D649A); conditions: Clone #5, Hct116, resistance generated with compound 2, A1946C / D649A; 72 hrs
# [14] = tested on: DLD-1 resistant cell line clone #58 (p97 D649D/N); assay: GI50 fold-change, resistant clone #58 vs parental; assay type: cell-based, human; conditions: Clone #58, DLD-1, resistance generated with compound 4, G1945G/A / D649D/N; 72 hrs
# Description: as §1
# [15] = tested on: Hct116 resistant cell line clone #90 (p97 Q473P); assay: GI50 fold-change, resistant clone #90 vs parental; assay type: cell-based, human; conditions: Clone #90, Hct116, resistance generated with compound 4, A1418C / Q473P; 72 hrs
# Description: as §1
# [16] = tested on: DLD-1 resistant cell line clone #87 (p97 S541P); assay: GI50 fold-change, resistant clone #87 vs parental; assay type: cell-based, human; conditions: Clone #87, DLD-1, resistance generated with compound 4, T1621T/C / S541P; 72 hrs
# Description: as §1
# [17] = tested on: Hct116 resistant cell line clone #180 (p97 A569T); assay: GI50 fold-change, resistant clone #180 vs parental; assay type: cell-based, human; conditions: Clone #180, Hct116, resistance generated with compound 4, G1705A / A569T; 72 hrs
# Description: as §1
# [18] = tested on: Hct116 resistant cell line clone #25 (p97 P500T); assay: GI50 fold-change, resistant clone #25 vs parental; assay type: cell-based, human; conditions: Clone #25, Hct116, resistance generated with compound 4, C1498A / P500T; 72 hrs
# Description: as §1
# [19] = tested on: Hct116 resistant cell line clone #152 (p97 T688I); assay: GI50 fold-change, resistant clone #152 vs parental; assay type: cell-based, human; conditions: Clone #152, Hct116, resistance generated with compound 4, C2063T / T688I; 72 hrs
# Description: as §2
# [20] = tested on: Hct116 resistant cell line clone #7 (p97 A659T); conditions: Clone #7, Hct116, resistance generated with compound 3, G1975A / A659T; 72 hrs
# [21] = tested on: Hct116 resistant cell line clone #139 (p97 P472S); assay: GI50 fold-change, resistant clone #139 vs parental; assay type: cell-based, human; conditions: Clone #139, Hct116, resistance generated with compound 4, C1414T / P472S; 72 hrs
# Description: as §1
# [22] = tested on: Hct116 resistant cell line clone #108 (p97 P646T); assay: GI50 fold-change, resistant clone #108 vs parental; assay type: cell-based, human; conditions: Clone #108, Hct116, resistance generated with compound 4, C1936A / P646T; 72 hrs
# Description: as §2
# [23] = tested on: Hct116 resistant cell line clone #33 (p97 P472L); assay: GI50 fold-change, resistant clone #33 vs parental; assay type: cell-based, human; conditions: Clone #33, Hct116, resistance generated with compound 4, C1415T / P472L; 72 hrs
# Description: as §1
SMILES,Fold Change in GI50 Compared to Parental Cell Line [1] [fold],Fold Change in GI50 Compared to Parental Cell Line [2] [fold],Fold Change in GI50 Compared to Parental Cell Line [3] [fold],Fold Change in GI50 Compared to Parental Cell Line [4] [fold],Fold Change in GI50 Compared to Parental Cell Line [5] [fold],Fold Change in GI50 Compared to Parental Cell Line [6] [fold],Fold Change in GI50 Compared to Parental Cell Line [7] [fold],Fold Change in GI50 Compared to Parental Cell Line [8] [fold],Fold Change in GI50 Compared to Parental Cell Line [9] [fold],Fold Change in GI50 Compared to Parental Cell Line [10] [fold],Fold Change in GI50 Compared to Parental Cell Line [11] [fold],Fold Change in GI50 Compared to Parental Cell Line [12] [fold],Fold Change in GI50 Compared to Parental Cell Line [13] [fold],Fold Change in GI50 Compared to Parental Cell Line [14] [fold],Fold Change in GI50 Compared to Parental Cell Line [15] [fold],Fold Change in GI50 Compared to Parental Cell Line [16] [fold],Fold Change in GI50 Compared to Parental Cell Line [17] [fold],Fold Change in GI50 Compared to Parental Cell Line [18] [fold],Fold Change in GI50 Compared to Parental Cell Line [19] [fold],Fold Change in GI50 Compared to Parental Cell Line [20] [fold],also measured
"CC(C)C[C@H](NC(=O)[C@H](Cc1ccccc1)NC(=O)c1cnccn1)B(O)O [Compound 1, [(1R)-3-methyl-1-[(2S)-3-phenyl-2-(pyrazin-2-ylformamido)propanamido]butyl]boronic acid, reference compound]",0.8,0.7,1.0,1.0,1.0,0.8,1.0,1.1,0.9,0.8,1.5,0.9,1.0,1.3,1.2,1.1,0.8,1.3,1.0,0.9,Fold Change in GI50 Compared to Parental Cell Line [21]: 1.0 fold; Fold Change in GI50 Compared to Parental Cell Line [22]: 0.9 fold; Fold Change in GI50 Compared to Parental Cell Line [23]: 0.9 fold
"Cc1cc2c(C(N)=O)cccc2n1-c1nc2c(c(NCc3ccccc3)n1)COCC2 [Compound 4, 1-[4-(benzylamino)-5H,7H,8H-pyrano[4,3-d]pyrimidin-2-yl]-2-methyl-1H-indole-4-carboxamide]",3.2,1.2,20.0,3.1,17.0,1.8,8.7,11.8,2.2,3.7,6.6,4.6,18.7,1.8,3.0,39.8,5.9,1.6,60.7,3.8,Fold Change in GI50 Compared to Parental Cell Line [21]: 4.8 fold; Fold Change in GI50 Compared to Parental Cell Line [22]: 2.0 fold; Fold Change in GI50 Compared to Parental Cell Line [23]: 11.6 fold
